The NIST ThermoML archive (doi:10.1021/acs.jced.6b00362)
± gives the expanded uncertainty stated by the source.

Columns and labels:
[1] = Crystal; DTA
[2] = refractive index (other wavelength) (dimensionless); details: 101 kPa, Liquid, Wavelength=632.8 nm, ellipsometry
[3] = refractive index (Na D-line) (dimensionless); details: 101.33 kPa, Liquid, ellipsometry

[Cl][Nd]([Cl])[Cl] [neodymium(III) chloride]
Details | Normal melting temperature [°C]
[1] | 760 ± 4

[2]
Details | refractive index
1053 K | 1.704 ± 0.001
1073 K | 1.701 ± 0.001
1093 K | 1.698 ± 0.001
1113 K | 1.695 ± 0.001
1133 K | 1.692 ± 0.001
1153 K | 1.689 ± 0.001
1173 K | 1.686 ± 0.001
1193 K | 1.683 ± 0.001
1213 K | 1.68 ± 0.001

[Cl-].[Na+] [sodium chloride]
[2]
Details | refractive index
1083 K | 1.41 ± 0.02
1093 K | 1.408 ± 0.02
1103 K | 1.407 ± 0.02
1113 K | 1.406 ± 0.02
1123 K | 1.405 ± 0.02
1133 K | 1.404 ± 0.02
1153 K | 1.402 ± 0.02
1173 K | 1.399 ± 0.02

[Cl-].[K+] [potassium chloride]
[2]
Details | refractive index
1073 K | 1.393 ± 0.001
1093 K | 1.39 ± 0.001
1103 K | 1.388 ± 0.001
1113 K | 1.386 ± 0.001
1123 K | 1.385 ± 0.001
1133 K | 1.383 ± 0.001
1153 K | 1.38 ± 0.001
1173 K | 1.377 ± 0.001
1193 K | 1.374 ± 0.001

[Cl][Sm]([Cl])[Cl] [samarium chloride]
Details | Normal melting temperature [°C]
[1] | 678 ± 4

[2]
Details | refractive index
973 K | 1.712 ± 0.001
1003 K | 1.705 ± 0.001
1023 K | 1.701 ± 0.001
1073 K | 1.691 ± 0.001
1103 K | 1.684 ± 0.001
1123 K | 1.68 ± 0.001
1153 K | 1.674 ± 0.001
1173 K | 1.672 ± 0.001

[Cl-].[Cs+] [cesium chloride]
[2]
Details | refractive index
1023 K | 1.439 ± 0.001
1033 K | 1.438 ± 0.001
1053 K | 1.434 ± 0.001
1073 K | 1.43 ± 0.001
1093 K | 1.426 ± 0.001
1113 K | 1.423 ± 0.001
1133 K | 1.419 ± 0.001
1153 K | 1.415 ± 0.001
1173 K | 1.411 ± 0.001

[Cl][Ce]([Cl])[Cl] [cerium trichloride]
Details | Normal melting temperature [°C]
[1] | 822 ± 4

[2]
Details | refractive index
1103 K | 1.697 ± 0.001
1133 K | 1.691 ± 0.001
1153 K | 1.688 ± 0.001
1173 K | 1.685 ± 0.001
1193 K | 1.681 ± 0.001
1213 K | 1.678 ± 0.001
1233 K | 1.674 ± 0.001

[Cl-].[Cl-].[Cl-].[Gd+3] [gadolinium(III) chloride]
Details | Normal melting temperature [°C]
[1] | 602 ± 4

refractive index
Details | 923 K | 973 K | 1023 K | 1073 K | 1123 K | 1173 K
[2] | 1.7 ± 0.002 | 1.685 ± 0.001 | 1.68 ± 0.001 | 1.675 ± 0.001 | 1.664 ± 0.001 | 1.662 ± 0.001
[3] | 1.7 ± 0.002 | 1.685 ± 0.001 | 1.68 ± 0.001 | 1.675 ± 0.001 | 1.664 ± 0.001 | 1.662 ± 0.001
